The results in this text go back to ChEMBL document CHEMBL1130874, “Heteroatom- and carbon-linked biphenyl analogs of Brequinar as immunosuppressive agents” (Bioorg Med Chem Lett, 1998).

The nature of assay [1]: Ability to inhibit proliferation in a mixture of human lymphocytes from two unrelated donors in MLR (human mixed lymphocyte reaction). It is filed as functional, cell-based.
Assay [2] concerns the target Dihydroorotate dehydrogenase (quinone), mitochondrial (Homo sapiens, UniProt Q02127). The experiment in a line: Immunosuppressive effect in an isolated enzyme assay using partially purified Dihydroorotate dehydrogenase from human liver for inhibition of the formation of orotate from radiolabeled dihydroorotate.

Chain of Dihydroorotate dehydrogenase (quinone), mitochondrial (Q02127 whole entry): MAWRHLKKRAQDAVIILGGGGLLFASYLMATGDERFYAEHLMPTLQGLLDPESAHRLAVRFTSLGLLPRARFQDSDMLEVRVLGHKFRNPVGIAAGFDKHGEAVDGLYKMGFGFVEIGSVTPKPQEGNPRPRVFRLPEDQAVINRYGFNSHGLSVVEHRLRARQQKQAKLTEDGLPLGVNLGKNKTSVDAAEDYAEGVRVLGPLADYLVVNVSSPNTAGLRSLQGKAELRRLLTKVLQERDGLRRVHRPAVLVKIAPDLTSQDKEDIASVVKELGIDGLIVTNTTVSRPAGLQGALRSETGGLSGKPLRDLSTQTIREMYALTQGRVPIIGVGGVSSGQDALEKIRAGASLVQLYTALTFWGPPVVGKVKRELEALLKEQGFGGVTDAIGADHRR

As usually defined, the IC50 is the concentration needed to halve the response being measured. In general, Ki refers to a dissociation constant, usually derived from enzyme kinetics or from competition with a known ligand. As to `Cc1c(N2CCc3c(-c4ccccc4)cc(F)cc32)nc2ccc(F)cc2c1C(=O)O`, the half-inhibitory concentration (IC50) in assay [1] was 41 nM. Also, the affinity in assay [2], expressed as Ki, was 30 nM.
In the case of `Cc1c(Oc2ccccc2)nc2ccc(F)cc2c1C(=O)O`, in assay [1], the IC50 is greater than 10000 nM. In assay [2], this compound returned an inhibition constant (Ki) greater than 1000 nM.
The like results for `COc1ccccc1-c1cccc2c1CCN2c1nc2ccc(F)cc2c(C(=O)O)c1C` were, in that order, 4.1 nM and 30 nM.
Consider `Cc1c(Nc2ccc(-c3ccccc3)cc2)nc2ccc(F)cc2c1C(=O)O`, for which, in assay [1], the IC50 was greater than 10000 nM. Also, in assay [2], the inhibition constant Ki was greater than 430 nM.
The like results for `Cc1c(N2CCc3c(-c4ccccc4F)cccc32)nc2ccc(F)cc2c1C(=O)O` were, in that order, 2.8 nM and 24 nM.
The like results for `Cc1c(-n2cnc3c(-c4ccccc4)cccc32)nc2ccc(F)cc2c1C(=O)O` were, in that order, 4700 nM and 71 nM.
The like results for `COc1cc(-c2ccccc2)c2c(c1)N(c1nc3ccc(F)cc3c(C(=O)O)c1C)CC2` were, in that order, 35 nM and 22 nM.
For the compound `Cc1c(Nc2ccccc2)nc2ccc(F)cc2c1C(=O)O`, the IC50 in assay [1] is greater than 10000 nM. Moreover, in assay [2], the Ki was greater than 200 nM.
The like results for `Cc1c(-n2ccc3c(-c4ccccc4)cccc32)nc2ccc(F)cc2c1C(=O)O` were, in that order, 380 nM and 4.5 nM.
In the same order, the values of `Cc1c(Oc2ccc(-c3ccccc3)cc2)nc2ccc(F)cc2c1C(=O)O` are greater than 10000 nM and greater than 1000 nM.
The like results for `COc1ccccc1-c1cccc2c(-c3nc4ccc(F)cc4c(C(=O)O)c3C)cn(C)c12` were, in that order, 650 nM and 40 nM.
`Cc1c(-c2cn(C)c3c(-c4ccccc4)cccc23)nc2ccc(F)cc2c1C(=O)O`: the 50% inhibitory concentration (IC50) in assay [1] stood at 140 nM. Further, affinity in assay [2] was put at a Ki of 27 nM.
Regarding `Cc1c(OCc2ccc(-c3ccccc3)cc2)nc2ccc(F)cc2c1C(=O)O`, the half-maximal inhibitory concentration (IC50) in assay [1] is greater than 10000 nM. Moreover, in assay [2], the inhibitory constant (Ki) is greater than 200 nM.
Consider `Cc1c(N2CCc3c(-c4ccccc4)cccc32)nc2ccc(F)cc2c1C(=O)O`, for which the half-inhibitory concentration (IC50) in assay [1] amounted to 26 nM. The same compound yielded an inhibitory constant (Ki) in assay [2] of 15 nM.
In the same order, the values of `Cc1c(N(C)c2cccc(-c3ccccc3)c2)nc2ccc(F)cc2c1C(=O)O` are greater than 10000 nM and 240 nM.
Take `Cc1c(Nc2cccc(-c3ccccc3)c2)nc2ccc(F)cc2c1C(=O)O`: the 50% inhibitory concentration (IC50) in assay [1] came out at 340 nM. The compound also had a Ki in assay [2] of 83 nM.
Take `COc1cccc(-c2cccc3c(-c4nc5ccc(F)cc5c(C(=O)O)c4C)cn(C)c23)c1`: the IC50 in assay [1] is 190 nM. This compound also registered a Ki in assay [2] of 32 nM.
The like results for `COc1cccc(-c2cccc3c2CCN3c2nc3ccc(F)cc3c(C(=O)O)c2C)c1` were, in that order, 4 nM and 34 nM.
In the same order, the values of `CC(=O)N(c1cccc(-c2ccccc2)c1)c1nc2ccc(F)cc2c(C(=O)O)c1C` are greater than 10000 nM and greater than 390 nM.
Turning to `Cc1c(-c2cccc3c(-c4ccccc4)cccc23)nc2ccc(F)cc2c1C(=O)O`, in assay [1], the IC50 amounted to 150 nM. The affinity in assay [2] corresponds to a Ki of 26 nM.
On to `Cc1c(Oc2cccc(-c3ccccc3)c2)nc2ccc(F)cc2c1C(=O)O`, for which the IC50 in assay [1] stood at 210 nM. Moreover, the Ki in assay [2] worked out at 21 nM.
For the compound `Cc1c(-c2cn(C)c3c(-c4cccc(C(F)(F)F)c4)cccc23)nc2ccc(F)cc2c1C(=O)O`, the concentration for half-maximal inhibition (IC50) in assay [1] stood at 7 nM. In addition, in assay [2], the Ki came out at 23 nM.
The like results for `Cc1c(N2CCc3c(-c4cccc(C(F)(F)F)c4)cccc32)nc2ccc(F)cc2c1C(=O)O` were, in that order, 0.41 nM and 24 nM.
The like results for `Cc1ccccc1-c1cccc2c1CCN2c1nc2ccc(F)cc2c(C(=O)O)c1C` were, in that order, 1.6 nM and 25 nM.
In the same order, the values of `Cc1c(OCc2cccc(-c3ccccc3)c2)nc2ccc(F)cc2c1C(=O)O` are greater than 10000 nM and 330 nM.
For `Cc1c(-c2ccc(-c3ccccc3F)cc2)nc2ccc(F)cc2c1C(=O)O` [BREQUINAR SODIUM], in assay [1], the half-maximal inhibitory concentration (IC50) is 15 nM.
In the case of `Cc1c(-c2c[nH]c3c(-c4ccccc4)cccc23)nc2ccc(F)cc2c1C(=O)O`, the half-maximal inhibitory concentration (IC50) in assay [1] came out at 1600 nM. This compound also came in with a Ki in assay [2] greater than 130 nM.
